Measurements reported in PMC7699524, “Assessing the Intestinal Permeability and Anti-Inflammatory Potential of Sesquiterpene Lactones from Chicory” (Nutrients, 2020).
Marks after values point to notes of the source that are not given here.

Columns and labels:
calcineurin-Crz1 pathway = assay: β-Galactosidase CDRE-lacZ yeast reporter assay of Crz1 activation; type: cell-based, S. cerevisiae; conditions: Saccharomyces cerevisiae, MnCl2 3 mM activation, strain YAA5; for inhibition at 12.5 µM: read-out: Calcineurin-Crz1 Inhibition (%) ± SD, 12.5 µM
Experimental: Cultures at OD600= 0.5 ± 0.05 were diluted to OD600= 0.1 ± 0.01, transferred to 96-well microplate and challenged with the highest nontoxic concentration previously determined for each compound to investigate their putative inhibitory effect towards the calcineurin-responsive zinc finger (Crz1) activation. Measurements of β-galactosidase activity driven by the calcineurin-dependent response element (CDRE) regulated lacZ reporter gene allowed the quantitative assessment of the capacity of each compound to inhibit the activation of Crz1. FK506 (Cayman Chemicals, Ann Arbor, MI, USA) was used as a positive control at a final concentration of 12.5 μM. After 90 min of incubation with the respective compounds at 30 °C under orbital shaking, MnCl2 (Merck, Saint Louis, MO, USA) was added at a final concentration of 3 mM. After 90 min of incubation under the same conditions, OD600 of cultures were recorded, 10 μL of cell suspensions were transferred to a new 96-well plate followed by addition of 20 μL Y-PER cell lysis reagent (ThermoFisher Scientific), and the plates were incubated for 20 min at 37 °C without agitation. 240 μL of LacZ buffer (8.5 g/L Na2HPO4 (ROTH), 5.5 g/L NaH2PO4.H2O (Merck), 0.75 g/L KCl (Panreac), 0.246 g/L MgSO4.7H2O (Merck) containing […] o-nitrophenyl β-D-galactopyranoside (ONPG) (Sigma–Aldrich®—Poole, Dorset, UK) was added to each well, and plates were incubated at 30 °C for 2 h. The OD420 and OD550 were monitored using a Biotek Power Wave XS Microplate Spectrophotometer (Biotek® Instruments, Winooski, VT, USA). The results were expressed as Miller units (MU), applying the following equation, where V = volume of culture assayed in mL; t = reaction time in minutes: Miller unit = 1000 × (OD420 − 1.75 × OD550)/(t × V × OD600)(1)

Caco-2 cells = assay: Permeability across Caco-2 monolayer (apical concentration by LC-MS); conditions: for % of Decrease in SL Concentration in the Apical Side (t = 4h) / SL conjugates with cysteine in the apical side after 4 h / Concentration of SL (Apical Side) t = 4 h / Concentration of SL (Apical Side) t = 0 h: Caco-2 monolayer; for % of Decrease in SL Concentration in the Apical Side (t = 4h): 10 µM apical, 4 h vs t = 0 h; for Concentration of SL (Apical Side) t = 4 h / Concentration of SL (Apical Side) t = 0 h: SL added at 10 µM apical; for Concentration of SL (Apical Side) t = 4 h: after 4 h; for Concentration of SL (Apical Side) t = 0 h: before experiment
Experimental: For intestinal permeability assessments of pure SLs, Caco-2 cells were seeded in 12 mm Transwell® inserts (polyester membrane, 0.4 μm pore size, Corning Costar Corp., NY, USA) at a density of 1.0 × 10^5 cell/cm^2. Cells were allowed to grow and differentiate to a confluent monolayer for 21 days postseeding with medium change three times per week. This mimics the apical and basolateral sides of the intestinal mucosa. Before the permeability assay, cells were washed with Hank’s balanced salt solution (HBSS) (Gibco, Life Technologies, Paisley, UK), and pure SLs in HBSS were added to the apical side for 4 h at the noncytotoxic concentration of 10 μM, while the basolateral well was replaced by HBSS. The fluorescent marker fluorescein (2.7 µM) was used as control, having been submitted to the same protocol as the SLs. Cells were submitted to an orbital shaking of 125 rpm (Ohaus, Shanghai, China), and samples from the basolateral side were collected after 15 min, 30 min, and then every hour until the end of the assay, and each time the retrieved volume was replaced by fresh HBSS to maintain sink conditions. After the 4 h assay, both apical and basolateral contents were collected, the cells were washed with PBS followed by culture medium, and culture medium was added to both compartments for 24 h to assess monolayer recovery. All samples were stored at −80 °C until LC-MS analysis.
Transepithelial electrical resistance (TEER) of all monolayers was monitored before and during experiments, and 24 h after the assay, to ensure their integrity using an EVOM™ voltmeter (WPI, Berlin, Germany). Before each experiment, TEER was measured and only monolayers with a TEER value higher than 500 Ω cm^2 were used. Experiments were done in triplicate.
Ultra High Performance Liquid Chromatography (UHPLC) separations were performed with a Dionex U3000 UHPLC coupled with a U3000 Photo Diode Array (PDA) and an LTQ-Orbitrap XL Mass Spectrometry (MS) system (Thermo-Fisher Ltd., Hemel Hempstead, UK). The MS and PDA systems were tuned and calibrated according to the manufacturers recommended procedures. The UHPLC was operated under Xcalibur and Chromeleon software (Thermo-Fisher Ltd. UK). A flow rate of 300 µL/min was applied, the column and guard (Synergi C18 Hydro-RP 80 Ä, 150 × 2.0 mm, 4 µm particle size; Phenomenex Ltd. U.K.) were maintained at a temperature of 30 °C. The solvent system compositions were, A: HPLC grade water (J.T. Baker, Scientific Chemical Supplies Ltd. UK), and solvent B: HPLC grade acetonitrile (J.T. Baker, Scientific Chemical Supplies Ltd. UK), both acidified with 0.1% MS grade formic acid (Ultima, Fisher Scientific, UK). A sample injection volume of 10 µL was employed in partial-loop mode. The gradient program was as follows: hold 2% B 0–2 min, 2–5% B 2–5 min, 5–45% B 5–25 min, 45–100% B 25–35 min, hold 100% B 35–38 min, 100–2% B 38–39 min, hold 2% B 39–44 min. Autosampler syringe and line washes were performed with 2:8 HPLC grade water: acetonitrile (J.T. Baker, Scientific Chemical Supplies Ltd., UK). The HPLC column eluent was first monitored by the U3000 PDA detector where spectra were collected in wavelength/absorbance mode from 200–600 nm. Additionally, three channel set points were employed, Channel A 210 nm, Channel B 260 nm, Channel C 320 nm. Spectra were collected with a filter bandwidth of 8 nm and wavelength step of 1 nm, the scan rate was 5 Hz.
The UHPLC eluent was next transferred to a Thermo LTQ-Orbitrap XL mass spectrometry system operated under Xcalibur (Thermo-Fisher Ltd. UK). For the first two minutes of analysis the UHPLC eluent was diverted to waste, from two to 39 min the eluent was directed to the MS detector, before being diverted back to waste between 39–44 min. Mass spectra were collected in centroid mode with a primary full scan event (m/z 100–1000) at a mass resolution of 30,000 (FWHM defined at m/z 400) within the Fourier Transform (FT) detector.

yeast cells = assay: Yeast cell viability (Cell Titer Blue); type: cell-based, S. cerevisiae; conditions: Cell Titer Blue assay
Experimental: Doses of SLs ranging from 12.5 μM to 100 μM for each compound were used in the yeast viability assays. Cultures obtained were diluted to a final OD600 = 0.025 ± 0.0025. The viability assays were performed in 96-wells microplates using 100 µL of diluted culture suspensions and 10 µL of Cell Titer Blue reagent (Promega, WI, USA) according to manufacturer’s instructions for 3 h at 30 °C. Fluorescence was measured in 30 min intervals at emission wavelength 580 nm using the Biotek Power Wave XS Microplate Spectrophotometer (Biotek® Instruments, Winooski, VT, USA).

[1] = Caco-2 apical side, conjugates estimated against calibration curves of parent SLs
[2] = LC-MS, apical side, t = 4 h, parent SLs added at 10 μM

Row | SMILES | inhibition at 12.5 µM (calcineurin-Crz1 pathway) | Apical Concentration t = 4 h (µM Equivalents to Parent SL) (Caco-2 cells; [1]) | % of Decrease in SL Concentration in the Apical Side (t = 4h) (Caco-2 cells) | SL conjugates with cysteine in the apical side after 4 h (Caco-2 cells; LC-MS) | Concentration of SL (Apical Side) t = 4 h (Caco-2 cells) | Concentration of SL (Apical Side) t = 0 h (Caco-2 cells) | Peak Area (Average a.u.) (Caco-2 cells; [2]) | Apical Concentration t = 4 h (µM Equivalents to Parent SL) (Caco-2 cells; Caco-2) | other results
1 | C=C1C(=O)O[C@@H]2[C@H]3C(CO)=CC(=O)C3=C(C)C[C@H](O)[C@@H]12 [Lactucin, lactucin] | 20 ± 14% | 5.9 ± 0.5 µM Equivalents to Parent SL | 28.8 *** % | detected | 5.9 ± 0.5 µM | 8.3 ± 0.7 µM | 6.8 × 10^7 a.u. | – | % of Decrease in SL Concentration in the Apical Side (t = 4h) (Caco-2 cells; listed as lactucin): ≈ 30%
2 | CC1=C2C(=O)C=C(CO)C2C2OC(=O)C(CSCC(N)C(=O)O)C2C(OC(=O)Cc2ccc(O)cc2)C1 (stereo not drawn) [Lactucopicrin-Cys] | – | – | – | – | – | – | – | 17.8 ± 2.9 µM Equivalents to Parent SL | –
3 | CC1=CCCC2(C)OC2C2OC(=O)C(CSCC(N)C(=O)O)C2CC1 (stereo not drawn) [Parthenolide-Cys] | – | – | – | – | – | – | – | 27 ± 5.9 µM Equivalents to Parent SL | –
4 | C/C1=C\[C@H]2OC(=O)C(CSC[C@H](N)C(=O)O)[C@@H]2CC/C(C)=C/CC1 (stereo partly drawn) [Costunolide-Cys] | – | 95 ± 8.4 µM Equivalents to Parent SL | – | – | – | – | 3.1 × 10^8 a.u. | – | –
5 | CC1=C2C(=O)C=C(CO)C2C2OC(=O)C(C)C2C(OC(=O)Cc2ccc(O)cc2)C1 (stereo not drawn) [11β,13-dihydrolactucopicrin] | 26 ± 11% | – | 29.9 * % | not detected | 4.9 ± 0.9 µM | 7.0 ± 1.2 µM | – | – | –
6 | C=C1C(=O)O[C@H]2[C@H]1CC/C(C)=C/CC[C@@]1(C)O[C@@H]21 [Parthenolide, parthenolide, reference compound] | 20 ± 12% | <LOQ | 100 ** % | detected | <LOQ | 11.9 ± 2.0 µM | – | – | Peak Area (Average a.u.) (Caco-2 cells; human, Caco-2, 4 h, 10 µM): 9.2 × 10^5 a.u.
7 | C=CC[C@@H]1/C=C(\C)C[C@H](C)C[C@H](OC)[C@H]2O[C@@](O)(C(=O)C(=O)N3CCCC[C@H]3C(=O)O[C@H](/C(C)=C/[C@@H]3CC[C@@H](O)[C@H](OC)C3)[C@H](C)[C@@H](O)CC1=O)[C@H](C)C[C@@H]2OC [FK506, reference compound] | 67 ± 13% | – | – | – | – | – | – | – | –
8 | CC1=C2C(=O)C=C(CO)C2C2OC(=O)C(CSCC(N)C(=O)O)C2C(O)C1 (stereo not drawn) [Lactucin-Cys] | – | – | – | – | – | – | – | 2.9 ± 3.6 µM Equivalents to Parent SL | –
9 | C=C1C(=O)O[C@@H]2[C@H]3C(CO)=CC(=O)C3=C(C)C[C@H](OC(=O)Cc3ccc(O)cc3)[C@@H]12 [Lactucopicrin, lactucopicrin] | 18 ± 9% | <LOQ | 100 ** % | detected | <LOQ | 12.4 ± 1.3 µM | 1.2 × 10^6 a.u. | – | Concentration of SL (Apical Side) t = 4 h (Caco-2 cells; listed as lactucopicrin): LOQ
10 | C=C1C(=O)O[C@@H]2/C=C(\C)CC/C=C(\C)CC[C@@H]12 [Costunolide] | – | <LOD | 100 ** % | detected | <LOD | 13.1 ± 1.8 µM | – | – | inhibition at 6.25 µM (calcineurin-Crz1 pathway; read-out: Calcineurin-Crz1 Inhibition (%) ± SD, 6.25 µM): 18 ± 9%; Concentration of SL (Apical Side) t = 4 h (Caco-2 cells; listed as costunolide): LOQ; Highest nontoxic concentration in yeast (yeast cells): 6.25 µM
